Results from patent US11419878B2, “Medicine obtained by combining FXR agonist and ARB” (Intercept Pharmaceuticals, Inc., priority 2016, dated 2022).

Experiments:
TGF-β1 = test: HHSC fibrosis marker gene expression, RT-PCR, TGF-β1; assay type: cell-based, human; settings: AT-II 10^-6M + LPS 10^-5M; ARB 10^-6M, obeticholic acid 5×10^-6M; 24 hours; monotherapy vs G2AL, combination vs monotherapy groups
Method: The various combined effects of obeticholic acid and three types of ARBs (losartan, valsartan, and candesartan) were confirmed in an in vitro cell system experiment. Specifically, using human hepatic stellate cells (HHSC), which are implicated in the main mechanism of progression of hepatic fibrosis in NASH, the effects of administration of obeticholic acid in combination with the three ARBs of inhibiting HHSC proliferation capacity and the expression of fibrosis markers were evaluated according to the following method. Human hepatic stellate cells (HHSC) (also referred to as human hepatic star cells) Obeticholic acid (obtained from Intercept Pharmaceuticals, Inc. via Sumitomo Dainippon Pharma Co., Ltd.) was used as an FXR agonist, and commercial losartan (potassium salt of losartan; referred to in this working example simply as “losartan”) and valsartan and candesartan ([…] of candesartan; referred to in this working example simply as “candesartan”) were used as ARBs. Angiotensin II (AT-II) and/or lipopolysaccharide (LPS) were used (both AT1-mediated AT-II signalling and TLR4-mediated LPS signaling are known to play major roles in HSC activation and the progression of hepatic fibrosis). With respect to the effect of inhibiting fibrosis marker gene expression, collagen production capacity and TGF-β production capacity were evaluated by the RT-PCR method. 1) HHSCs were inoculated onto a 6-well plate in the amount of 300,000 cells/2 ml and allowed to proliferate in 1% FBS DMEM medium for 24 hours. 2) After 24 hours, the cells were divided into the following 7 groups and transferred to culture medium after adding the following drugs and/or reagents. Losartan was used as an ARB. Negative control group (G1): No drugs added (control) […] AT-II (10^-6M) Positive control group L […]): LPS (10^-5M) Positive control group AL ([…]): (10^-6M)+LPS (10^-5M) Obeticholic acid administration (G3): AT-II (10^-6M)+LPS (10^-5M)+obeticholic acid (5×10^-6M) ARB administration (G4): AT-II (10^-6M)+LPS (10^-5M)+ARB (10^-6M) Obeticholic acid+ARB combined administration (G5): AT-II (10^-6M)+LPS (10^-5M)+obeticholic acid (5×10^-6M)+ARB (10^-6M) […] Evaluations were conducted in the five groups G1, G2AL, G3, G4, and G5.

[1] = test system: C57Bl/6J mice fed a choline-deficient, amino acid-defined, high-fat diet (CDAHFD); test: Murine NASH model (CDAHFD-fed mice), H&E histology: liver cell swelling, fatty degeneration, NAS; assay type: in vivo, mouse; settings: obeticholic acid 30 mg/kg/day and/or losartan 30 mg/kg/day oral, 3 weeks from 2.5 weeks of diet
Text: The accepted pathological diagnostic criterion for NASH is “observation of liver cell ballooning accompanied by inflammation in addition to large-droplet hepatic steatosis.” Matteoni et al. conducted a long-term follow-up study of patients with NAFLD, classifying the disease based on pathology findings into 4 types (type 1: fatty liver alone, type 2: fat accumulation plus inflammatory cell infiltration, type 3: fat accumulation plus ballooning hepatocyte degeneration, type 4: fat accumulation/ballooning hepatocyte degeneration plus Mallory-Denk bodies or fibrosis). […] In order to reduce differences among individual observers and institutions, the Nonalcoholic Steatohepatitis Clinical Research Network has proposed a pathodiagnostic scoring system in which the extent of fatty degeneration, inflammation, and hepatocyte ballooning is scored (NAS: NAFLD Activity Score) (Matteoni C A, Younossi Z M, Gramlich T, Boparai N, Liu Y C, McCullough A J: Nonalcoholic fatty liver disease: A spectrum of clinical and pathological severity. Gastroenterology, 116; 1413-1419, 1999). The pathodiagnostic standards making up the NASH score were evaluated using the following animal model, and the individual and combined effects of an FXR agonist (obeticholic acid) and an ARB (losartan) were studied. […]

| Compound | TGF-β1 mRNA expression induced by AT-II and LPS in HHSC (TGF-β1) | liver cell swelling (positive area rate, improvement) [1] |
| --- | --- | --- |
| CCCCc1nc(Cl)c(CO)n1Cc1ccc(-c2ccccc2-c2nn[nH]n2)cc1 [losartan] | statistically significant inhibition | no improving tendency whatsoever |
| CC[C@H]1[C@@H](O)[C@@H]2[C@H](CC[C@]3(C)[C@@H]([C@H](C)CCC(=O)O)CC[C@@H]23)[C@@]2(C)CC[C@@H](O)C[C@@H]12 [obeticholic acid, 3α,7α-dihydroxy-6α-ethyl-5β-cholan-24-oic acid] | statistically significant inhibition | tended to be inhibited |
